# From patent publication US12419931B2, “Anti-cancer composition” (ACUPHARM INTERNATIONAL PROPRIETARY LIMITED, priority 2020, dated 2025)
# Tested on: cultured tissue from needle biopsy, Breast DCIS papillary neoplasm
# Test: dose response study with cumulative cell death on cultured patient biopsy tissue (patient 19055)
# Assay type: cell-based, human
# Conditions: in vitro cultured biopsy sample, patient 19055, Breast DCIS papillary neoplasm
# Protocol: Comparative studies were performed using curcumin extract as described above (referred to as ACPJL 08), Sutherlandia leaf extract in water (referred to as ACPJL 35), Sutherlandia leaf extract in 50% ethanol and water solution (referred to as ACPJL 28), Sutherlandia leaf extract in 90% ethanol and water solution (referred to as ACPJL 07) and a combinatorial formulation using the curcumin extract and Sutherlandia leaf extract in water and alcohol according to this invention (referred to as ACPJL 20). These extracts were compared to a number of known botanical isolates with anti-cancer activity, as well as a number of known anti-cancer drugs, using a dose response design with cumulative cell death as the dependent variable. These studies were conducted on in vitro samples of cultured tissue, taken as biopsy samples from patients as part of a standard culture and testing process done in order to optimise treatment.
# A representative sample of such a study is provided herein below.
# Summary of Study of Patient with Assigned Number 19055
# Patient from whom sample was obtained was a person presenting with a diagnosis of Breast DCIS papillary neoplasm. The sample was obtained via needle biopsy, before being cultured.
row,Structure (SMILES),overall assessment in standard culture and testing process
1,COc1cc2c(Oc3ccc4[nH]c(C)cc4c3F)ncnc2cc1OCCCN1CCCC1 [Cediranib],potential benefit
2,Nc1nc(Cl)nc2c1ncn2[C@@H]1O[C@H](CO)[C@@H](O)[C@@H]1F [Clofarabine],potential benefit
3,CC(=O)O[C@@]12CO[C@@H]1C[C@H](O)[C@@]1(C)C(=O)[C@H](O)C3=C(C)[C@@H](OC(=O)[C@H](O)[C@@H](NC(=O)OC(C)(C)C)c4ccccc4)C[C@@](O)([C@@H](OC(=O)c4ccccc4)[C@H]21)C3(C)C [Docetaxel],potential benefit
4,COc1cc2ncnc(Nc3ccc(F)c(Cl)c3)c2cc1OCCCN1CCOCC1 [Gefitinib],potential benefit
5,O=C1c2c(O)ccc(O)c2C(=O)c2c(NCCNCCO)ccc(NCCNCCO)c21 [Mitoxantrone],potential benefit
6,COC(=O)c1ccc2c(c1)NC(=O)/C2=C(\Nc1ccc(N(C)C(=O)CN2CCN(C)CC2)cc1)c1ccccc1 [Nintedanib],good efficacy and a positive dose response curve
7,CC(=O)O[C@H]1C(=O)[C@@]2(C)[C@H]([C@H](OC(=O)c3ccccc3)[C@]3(O)C[C@H](OC(=O)[C@H](O)[C@@H](NC(=O)c4ccccc4)c4ccccc4)C(C)=C1C3(C)C)[C@]1(OC(C)=O)CO[C@@H]1C[C@@H]2O [Paclitaxel],potential benefit
8,CC[C@]1(O)C[C@H]2CN(CCc3c([nH]c4ccccc34)[C@@](C(=O)OC)(c3cc4c(cc3OC)N(C=O)[C@H]3[C@@](O)(C(=O)OC)[C@H](OC(C)=O)[C@]5(CC)C=CCN6CC[C@]43[C@@H]65)C2)C1 [Vincristine],potential benefit
9,CCC1=C[C@@H]2CN(C1)Cc1c([nH]c3ccccc13)[C@@](C(=O)OC)(c1cc3c(cc1OC)N(C)[C@H]1[C@@](O)(C(=O)OC)[C@H](OC(C)=O)[C@]4(CC)C=CCN5CC[C@]31[C@@H]54)C2 [Vinorelbine],potential benefit
10,O=C(CCCCCCC(=O)Nc1ccccc1)NO [Vorinostat],potential benefit
